Patent publication US20070225252A1, “Ketogenic Saccharides” (priority 2004, published 2007)

Test: Ketogenesis in rats in vivo (plasma (R)-3-hydroxybutyrate after oral gavage)
Set-up: species or system Male Sprague-Dawley rats
Details: rat, ANOVA/Dunnett P<0.05
Experimental: Male Sprague-Dawley rats (weight range 200-250 g Charles River, Margate, Kent) were group housed in polypropylene cages at a temperature of 21±4° C. and 55±20% humidity and on a standard light/dark cycle. Animals had free access to a standard pelleted rat diet and tap water at all times. Animals were accustomed to these conditions for at least one week before experimentation.
Compounds were administered by oral gavage (po). Control animals received the appropriate vehicle via the same route. The experiment was performed over 2 days (ie 2 compounds were tested per day). Blood samples were taken by cardiac puncture after the animals were killed by a British Home Office Schedule 1 method. The terminal blood sample was collected into suitable plasma preparation tubes (EDTA-coated tubes). Plasma samples were initially frozen on dry ice and transferred to a −75° C. freezer until required for subsequent analysis (spectrophotometric analysis of (R)-3-hydroxybutyrate).
Sodium DL-β-hydroxybutyrate (H-6501 Lot 111K2618) was obtained from Sigma A stock solution of β-hydroxybutyrate (40 mM DL racemate equivalent to 20 mM D-isomer) was prepared in 0.9% saline solution, kept at 4° C. and used to generate appropriate dilutions for an assay standard curve.
Commercial clinical assay kits for the determination of D-β-hydroxybutyrate were obtained from Randox Laboratories (Antrim, UK). Kits were obtained in two pack sizes (Ranbut RB1007: 10×10 ml and RB1008: 10×50 ml) but were otherwise identical. […] The kit relies on measuring the appearance of NADH via the activity of β-hydroxybutyrate dehydrogenase measured as an increase of OD340 nm. […]
The protocol supplied with the Ranbut kits was for a discrete (cuvette-based) spectrophotometzic assay, so the protocol was modified for suitability with a 96-well microplate format using blank, flat-bottomed microplates (Greiner PS 655101 Lot 98 35 01). […] Standard dilutions and samples were pipetted a single plate at a time and preincubated at 37° C. for 15 minutes in the sample compartment of a Molecular Devices VERSAmax tunable microplate reader: The appropriate volume of assay reagent was reconstituted, according to instructions, using distilled water and preincubated at 37° C. for 15 minutes using a static water bath. […] The plate was reloaded, mixed and then the change in OD340 nm followed in kinetic mode with a reading at every 15 seconds for a total of 2 minutes. The reaction rate was then determined from the OD increase over a suitable 1 minute period, after allowing a necessary period for the reaction rate to settle. The rate between 45 seconds and 105 seconds was used as the default measuring period, though occasionally a different period was used as necessary (eg if an aberrant reading was obtained at one of these time-points). […]

With “arabinose (R)-3-hydroxybutyrate ester [KTX 0312]” the “increases in plasma 3-hydroxybutyrate concentrations (ketogenesis)” value (shortened to “increases”) (351 mg/kg po, blood sampling 30, 120, 240 min vs vehicle) was “did not evoke significant ketogenesis”.

For “fructose (R)-3-hydroxybutyrate ester [KTX 0311]”, the “increases” value (441 mg/kg po, blood sampling 30, 120, 240 min vs vehicle baseline) was “significant increases”.

With “glucose (R)-3-hydroxybutyrate ester [KTX 0310]” the “increases” value (440 mg/kg po, blood sampling 30, 120, 240 min vs vehicle) was “did not evoke significant ketogenesis”.

For “sorbitol 3-hydroxybutyrate tri-ester [KTX 0313]”, the “increases” value (300 mg/kg po, blood sampling 30, 120, 240 min vs vehicle baseline) was “significant increases”.
